Laboratory results as given in ChEMBL document CHEMBL5500335, “Ligand-based design and synthesis of new trityl histamine and trityl cysteamine derivatives as SIRT2 inhibitors for cancer therapy” (Eur J Med Chem, 2024).
Activity calls are given as the source filed them. The rule behind the calls is not given here.

How the values were obtained:
[1] = biological target: T1, NAD-dependent protein deacetylase sirtuin-2 (Homo sapiens, UniProt Q8IXJ6); assay: Inhibition of recombinant SIRT2 (unknown origin) deacetylase activity using Ac-RHKK(Ac)-MCA as substrate incubated for 60 mins in presence of NAD by fluorogenic assay
T1 sequence (Q8IXJ6 whole entry): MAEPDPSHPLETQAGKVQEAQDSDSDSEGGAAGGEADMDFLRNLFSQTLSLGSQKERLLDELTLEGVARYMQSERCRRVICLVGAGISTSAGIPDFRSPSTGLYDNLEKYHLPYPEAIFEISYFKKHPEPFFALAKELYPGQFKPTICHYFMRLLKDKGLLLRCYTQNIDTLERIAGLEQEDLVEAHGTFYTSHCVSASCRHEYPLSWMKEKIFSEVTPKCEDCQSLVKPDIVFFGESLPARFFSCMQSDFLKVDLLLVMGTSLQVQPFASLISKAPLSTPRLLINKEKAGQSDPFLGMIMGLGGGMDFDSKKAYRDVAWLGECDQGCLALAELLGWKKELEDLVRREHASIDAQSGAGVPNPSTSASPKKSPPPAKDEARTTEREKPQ

[2] = tested on: Panel NCI-60 (60 carcinoma cell lines); assay: Growth inhibition of human Panel NCI-60 (60 carcinoma cell lines) cells incubated for 48 hrs by SRB assay; format: functional
[3] = tested on: Panel NCI-60 (60 carcinoma cell lines); assay: Antiproliferative activity against human Panel NCI-60 (60 carcinoma cell lines) cells assessed as inhibition of cell growth incubated for 48 hrs by SRB assay; format: functional
[4] = tested on: Panel NCI-60 (60 carcinoma cell lines); assay: Antiproliferative activity against human Panel NCI-60 (60 carcinoma cell lines) cells assessed as decrease in cell count incubated for 48 hrs by SRB assay; format: functional
[5] = biological target: T2, NAD-dependent protein deacetylase sirtuin-2 (Homo sapiens) (UniProt Q8IXJ6); assay: Inhibition of SIRT2 in human MCF7 cells assessed as induction of eIF5A acetylation incubated for 24 hrs by immunoblotting analysis; format: cell-based; conditions: dose 2-10 µM
T2 sequence (whole entry): T1 sequence (Q8IXJ6 whole entry)

MCF7 [6] = assay: Cell cycle arrest in human MCF7 cells assessed as G0-G1 phase cells incubated for 24 hrs by flow cytometric analysis (reference value: 55.8 %); format: functional
MCF7 [7] = assay: Cell cycle arrest in human MCF7 cells assessed as accumulation of S phase cells incubated for 24 hrs by flow cytometric analysis (reference value: 26.6 %); format: functional
MCF7 [8] = assay: Cell cycle arrest in human MCF7 cells assessed as accumulation of G2/M phase cells incubated for 24 hrs by flow cytometric analysis (reference value: 18 %); format: functional
[9] = Cytotoxicity against human PBMC cells assessed as cell viability at 10 uM incubated for 2 days by MTT assay relative to control; format: toxicity, cell-based; conditions: time 2 day, read-out: Activity
[10] = Cytotoxicity against human PBMC cells assessed as cell viability at 1 uM incubated for 2 days by MTT assay relative to control; format: toxicity, cell-based; conditions: time 2 day, read-out: Activity
[11] = Cytotoxicity against human PBMC cells assessed as cell viability incubated for 2 days by MTT assay; format: toxicity, cell-based
[12] = Selectivity ratio of IC50 for antiproliferative activity against spontaneous remission leukemia cell line (unknown origin) to IC50 for cytotoxicity against human PBMC cells; format: toxicity, cell-based; conditions: read-out: Ratio IC50
[13] = Selectivity ratio of IC50 for antiproliferative activity against human MOLT-4 cells to IC50 for cytotoxicity against human PBMC cells; format: toxicity, cell-based; conditions: MOLT-4 cells and PBMC cells, read-out: Ratio IC50
DNA = assay: Induction of DNA (unknown origin) cleavage; format: nucleic-acid assay

Row | Compound | IC50 [1] [µM] | GI50 [2] [µM] | TGI [3] [µM] | LC50 (50% net cell kill) [4] [µM] | also measured
1 | CCN(CC)c1ccnc(CNCCSC(c2ccccc2)(c2ccccc2)c2ccc(C)cc2)c1 | 27.3 | 1.38 | 2.85 | ≥ 5.59 | 
2 | CN(C)c1ccnc(CNCCSC2(c3ccc(C(F)(F)F)cc3)c3ccccc3C=Cc3ccccc32)c1 | > 50 | 0.61 | 4.39 | ≥ 10 | 
3 | CN(C)c1ccnc(CNCCCSC(c2ccccc2)(c2ccccc2)c2ccccc2)c1 | 26.1 | 1.55 | 3.19 |  | 
4 | COc1ccc(C2(SCCNCc3cc(N(C)C)ccn3)c3ccccc3CCc3ccccc32)cc1 | 8.63 | 0.19 | 0.44 |  | 
5 | CN(C)c1ccnc(CNCCc2cn(C(c3ccccc3)(c3ccccc3)c3ccccc3)cn2)c1 | 8.62 | 0.26 | 1.19 |  | 
6 | COc1ccc(C(SCCNCc2cc(N(C)C)ccn2)(c2ccccc2)c2ccccc2)cc1 | 12.4 | 0.21 | ≥ 0.48 | ≥ 1.82 | 
7 | CN(C)c1ccnc(CNCCSC2(c3ccccc3)c3ccccc3CCc3ccccc32)c1 | 10.6 | 1.51 | ≥ 2.93 |  | 
8 | CCN(CC)c1ccnc(CNCCSC(c2ccccc2)(c2ccccc2)c2ccc(OC)cc2)c1 | 14.2 | 1.3 | 3.06 | ≥ 5.59 | 
9 | CN(C)c1ccnc(CNCCSC2(c3ccc(C(F)(F)F)cc3)c3ccccc3CCc3ccccc32)c1 | 49.6 | 0.18 | 0.37 | ≥ 4.77 | 
10 | CN(C)c1ccnc(CNCCSC2c3ccccc3C=Cc3ccccc32)c1 | > 50 |  |  |  | 
11 | CCN(CC)c1ccnc(CNC(Cc2cn(C(c3ccccc3)(c3ccccc3)c3ccccc3)cn2)C(=O)OC)c1 (centres undefined) | 7.61 |  |  |  | 
12 | CN(C)c1ccnc(CNCCSC2(c3ccccc3)c3ccccc3C=Cc3ccccc32)c1 | 12 | 0.22 | ≥ 0.5 | ≥ 2.17 | 
13 | CCN(CC)c1ccnc(CNCCc2cn(C(c3ccccc3)(c3ccccc3)c3ccccc3)cn2)c1 | 15.4 | 1.03 | ≥ 3.2 |  | 
14 | COc1ccc(C2(SCCNCc3cc(N(C)C)ccn3)c3ccccc3C=Cc3ccccc32)cc1 | 5.63 | 0.04 | ≥ 0.07 | ≥ 0.72 | inhibition [5]: Dose-Dependent Effect; Activity (MCF7 [6]): 26.7%; Activity (MCF7 [7]): 29.4%; Activity (MCF7 [8]): 46.5%; viability at 48 h, 10 µM [9]: 16.2%; viability at 48 h, 1 µM [10]: 84.9%; IC50 at 2 days [11]: > 1 µM; selectivity ratio [12]: 25; selectivity ratio [13]: 2.2; Activity (DNA): inactive
15 | Cc1ccc(C(SCCNCc2cc(N(C)C)ccn2)(c2ccccc2)c2ccccc2)cc1 | 9.91 | 0.37 | 1.57 | ≥ 4.65 | 
